From patent publication US20260250278A1, “PHENYL-SUBSTITUTED DIHYDRONAPHTHYRIDINE COMPOUNDS, AND PREPARATION AND USE THEREOF” (SUZHONG PHARMACEUTICAL GROUP CO., LTD., priority 2022, published 2026) come the findings set out here.

For one data set, the target named is CYP3A4 (Homo sapiens, UniProt P08684). Nature of the data set: biochemical. In kind it is in vitro ADME.
For data set [1], the system named is diabetic nephropathy mouse model. Kind of data set: Pharmacodynamic effects on diabetic nephropathy mouse model. In kind it is in vivo. As to conditions: KK-Ay mice. The procedure:
The pharmacodynamic effects of the compounds 36 and 62 on the diabetic nephropathy mouse model were evaluated.
• Strain: C57BL/6 mice, and KK-Ay mice • Weeks of age: the animals were raised to 6 weeks to 8 weeks of age, and the experiment was started when the animals were 7 weeks to 9 weeks of age • Sex: male • Weight: C57BL/6 mice: 21 g to 23 g, and KK-Ay mice: 25 g to 30 g • Number: 72 experimental animals
On the day of administration, the animals were randomly divided into 9 groups according to their weights, comprising a model group (KK-Ay+solvent), a Finerenone group (KK-Ay+Finerenone: 3 mg/kg), a low-dose compound 62 group (KK-Ay+compound 62: 1 mg/kg), a middle-dose compound 62 group (KK-Ay+compound 62: 3 mg/kg) and high-dose compound 62 group (KK-Ay+compound 62: 10 mg/kg), a low-dose compound 36 group (KK-Ay+compound 36: 1 mg/kg), a middle-dose compound 36 group (KK-Ay+compound 36: 3 mg/kg) and a high-dose compound 36 group (KK-Ay+compound 36: 10 mg/kg). Specific grouping and administration schemes referred to Table 70-2.
When the experiment was started, 24-hour urine of the mice was collected by a metabolic cage in 2nd, 4th, 6th and 8th weeks before and after modeling, and microalbumin (MALB) and creatinine (CREA) contents of the urine were detected by CANON TBA-120FR automatic blood biochemistry to calculate (MALB/CREA).
When the experiment was ended, the mice were euthanized, the blood was taken by heart puncture and put into an anticoagulant-free EP tube, allowed to stand at room temperature for 0.5 hour, and then centrifuged at 4° C. and 6000 g for 15 minutes, and the serum was collected and transferred to a new EP tube, and stored in a refrigerator at −80° C. An insulin content of the serum and serum ions were detected by an ELISA method.
After the experiment was ended, the kidneys of all animals were dissected and collected, fixed in formalin, embedded and made into sections for PAS staining and Masson staining, and then quantitatively analyzed.
Experimental results were expressed as “mean value±standard deviation”. The data of each group were statistically analyzed by GraphPad 8.0 software, and p<0.05 was considered to be statistically significant.

Data set [2] in a line: Pharmacokinetic test of rats (intravenous and intragastric administration). As to conditions: SD rats; for AUC(0-t) / Cmax / clearance / half-life: rat, plasma. In kind it is in vivo. The protocol: This experiment was intended to evaluate a pharmacokinetic behavior of an implementing compound after intravenous injection or intragastric administration in the rats. Intravenous injection administration: a test compound was prepared into 0.2 mg/mL clear solution, a solvent was 10% ethanol, 40% polyethylene glycol 400 and 50% water, and after administration, plasma was collected 0.083 hour, 0.25 hour, 0.5 hour, 1 hour, 2 hours, 4 hours, 8 hours and 24 hours later. Intragastric administration: a test compound was prepared into 1 mg/mL clear solution, a solvent was 10% ethanol/40% polyethylene glycol 400/50% water, and after administration, plasma was collected 0.25 hour, 0.5 hour, 1 hour, 2 hours, 4 hours, 8 hours and 24 hours later.
(§1) A concentration of the test compound in the plasma was determined by high-performance liquid chromatography-tandem mass spectrometry (LC-MS/MS). Retention time, chromatogram collection and chromatogram integration of compounds and internal standards were treated by software Analyst (Applied Biosystems), and data statistics was treated by software Analyst (Applied Biosystems).
(§2) A plasma concentration was treated by a non-atrioventricular model of Winnonlin™ Version 6.1 (Pharsight, Mountain View, CA) pharmacokinetic software, and pharmacokinetic parameters were calculated by a linear logarithmic trapezoid method.
Pharmacokinetic parameters of the compounds in the rats with an intravenous injection dose of 1 mg/kg and an intragastric and oral dose of 5 mg/kg were as shown in Table 20 below.

Data set [3] is described as follows: Pharmacokinetic test of mice (intravenous administration). The data set is classed as in vivo. As to conditions: mouse, plasma; CD1 mice, intravenous 1 mg/kg. The protocol: This experiment was intended to evaluate a pharmacokinetic behavior of a compound after intravenous injection or intragastric administration in the mice. Intravenous injection administration: a test compound was prepared into 0.2 mg/mL clear solution, a solvent was 10% ethanol/40% polyethylene glycol 400/50% ultrapure water, and after administration, plasma was collected 0.083 hour, 0.25 hour, 0.5 hour, 1 hour, 2 hours, 4 hours, 8 hours, 24 hours and 48 hours later.
as §1, §2

For data set [4] the following is noted: mouse, in vivo. From the text: In particular, a maximum tolerated dose of the compound 36 after repeated administration for 14 days is more than 2.7 times that of the compound 62, especially a safety window of the dose is more than 230 times that of the equivalent dose, so that the compound has high safety.
Setting [5] is: CYP3A4-5M IC50, human CYP3A4, CYP3A4-5M.
[6] abbreviates: CYP3A4-5T IC50, human CYP3A4, CYP3A4-5T.
[7] abbreviates: intragastric and oral administration 5 mg/kg.

CYP3A4, sequence (P08684 2-503 limits assumed): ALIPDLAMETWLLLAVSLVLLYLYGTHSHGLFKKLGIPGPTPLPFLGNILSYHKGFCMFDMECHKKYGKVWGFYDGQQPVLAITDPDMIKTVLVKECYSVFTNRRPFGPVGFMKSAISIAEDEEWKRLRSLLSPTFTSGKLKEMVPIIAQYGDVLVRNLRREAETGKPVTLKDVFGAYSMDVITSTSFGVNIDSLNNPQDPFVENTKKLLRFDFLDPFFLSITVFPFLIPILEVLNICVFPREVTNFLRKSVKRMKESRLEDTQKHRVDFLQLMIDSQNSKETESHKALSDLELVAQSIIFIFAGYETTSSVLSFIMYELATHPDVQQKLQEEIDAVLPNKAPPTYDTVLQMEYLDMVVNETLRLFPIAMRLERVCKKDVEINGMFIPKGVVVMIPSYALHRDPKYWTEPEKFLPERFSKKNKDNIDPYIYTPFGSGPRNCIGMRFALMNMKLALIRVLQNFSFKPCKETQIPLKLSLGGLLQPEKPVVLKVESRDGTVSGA

In general, IC50 refers to the concentration that inhibits the measured activity by half. Low readings indicate inhibition by little substance, high ones a need for much substance. What is called AUC(0-t) is the area under the concentration-time curve up to a stated or last time point. High values mean high exposure, low ones low exposure. The term Cmax denotes the highest concentration seen after dosing. As a reminder, the clearance is the rate of elimination divided by the concentration. High values mean efficient removal, low ones inefficient removal. As a reminder, the half-life is the time in which the quantity being followed falls by half. Read a high half-life as slow decline. Regarding `CCOc1ncc(C)c2c1[C@H](c1ccc(C#N)c3c1OCC3)C(C(N)=O)=C(C)N2` [Example 36, (S)-4-(4-cyano-2,3-dihydrobenzofuran-7-yl)-5-ethoxy-2,8-dimethyl-1,4-dihydro-1,6-naphthyridine-3-formamide], the “inhibitory effect on CYP3A4” value at CYP3A4 is “small inhibitory effect”. Moreover, the IC50 on CYP3A4 (setting [5]) is 22.9 µM. The 50% inhibitory concentration (IC50) against CYP3A4 (setting [6]) came out at 15.8 µM. Further, in data set [1], the “diabetic nephropathy and hypertension” value is given as “improve”; the urinary protein/creatinine ratio result is given as “significantly reduce”; the urinary sodium excretion result is given as “significantly promote”. In addition, in data set [2] (setting [7]), the F was found to be 73.74%, the AUC(0-t) was 365 µg·h/mL and the peak level (Cmax) was 37000 ng/mL. In addition, in data set [2] (intravenous 1 mg/kg), the AUC(0-t) is 94.1 µg·h/mL, the clearance is 0.14 mL/min/kg and the half-life is 12.1 h. In data set [3], this molecule displayed an AUC(0-t) of 206 µg·h/mL. For the same molecule, in data set [4], the “maximum tolerated dose after repeated administration for 14 days, relative to compound 62” value was “more than 2.7 times that of the compound 62”. Further, the “safety window of the dose relative to the equivalent dose” value in data set [4] (14 days) was “more than 230 times that of the equivalent dose”.
For `CCOc1ncc(C)c2c1[C@H](c1ccc(C#N)c3c1OCO3)C(C(N)=O)=C(C)N2` [Example 62, (S)-4-(7-cyanobenzo[d][1,3]dioxol-4-yl)-5-ethoxy-2,8-dimethyl-1,4-dihydro-1,6-naphthyridine-3-formamide], the IC50 against CYP3A4 (setting [5]) was determined as 13.7 µM. The same molecule came in with an IC50 on CYP3A4 (setting [6]) of 5.35 µM. In addition, in data set [1], the “diabetic nephropathy and hypertension” value is listed as “improve”; the urinary protein/creatinine ratio result is given as “significantly reduce”; the urinary sodium excretion entry was “significantly promote”. In data set [2] (setting [7]), this molecule had an F of 78.09%, an AUC(0-t) of 361 µg·h/mL and a Cmax of 24000 ng/mL. In data set [2] (intravenous 1 mg/kg), the AUC(0-t) turned out to be 106 µg·h/mL, the clearance was found to be 0.13 mL/min/kg and the half-life is 10.1 h. In data set [3], the AUC(0-t) came to 201 µg·h/mL. For the same molecule, the “maximum tolerated dose after repeated administration for 14 days (safety in words)” value in data set [4] is on record as “highly safe”.
